{"source": "patent US8969378B2", "about": "“Inhibitor of the differentiation of T cells into Th1 cells” (Kowa Co., Ltd., priority 2007, dated 2015)", "key": {"[1]": {"test_system": "Th1 cells derived from spleen cells of MOG-immunized mice", "assay": "Inhibition of activation of Th1 cells: IFN-γ production by MOG-stimulated spleen cells of EAE mice (ELISA)", "assay_type": "cell-based, C57BL/6 mice", "settings": "FIG. 1; for concentration that significantly reduced the amount of IFN-γ produced by Th1 cells (inhibited activation of Th1 cells): spleen cells of MOG-immunized EAE mice, day 14, stimulated with MOG, IFN-γ in supernatant by ELISA", "method": "Five C57BL/6 mice were immunized with myelin oligodendrocyte glycoprotein (MOG), and mice with experimental autoimmune encephalomyelitis ([…] model of multiple sclerosis) were prepared in a conventional manner. On day 14 after immunization, spleen cells were collected from each mouse and cultured in a 24-well culture plate coated with CD3 and CD28 antibodies, and then stimulated with MOG in the presence of pitavastatin or atorvastatin, to thereby activate Th1 cells. The Th1 cytokine (IFN-γ) concentration of the supernatant of the resultant cell culture was determined through ELISA."}, "human T cells": {"test_system": "human T cells", "assay": "Differentiation of peripheral blood T cells into Th1 / Th2 cells (IL-12, anti-CD3/CD28, flow cytometry)", "assay_type": "cell-based", "settings": "FIG. 2; for concentration exhibiting the effect of inhibiting differentiation of T cells into Th1 cells / concentration exhibiting the effect of promoting differentiation of T cells into Th2 cells: human peripheral blood cells, IL-12 100 ng/mL, four days; for concentration exhibiting the effect of inhibiting differentiation of T cells into Th1 cells: CD4-positive IFN-γ-positive cells; for concentration exhibiting the effect of promoting differentiation of T cells into Th2 cells: CD4-positive IL-4-positive cells", "method": "Peripheral blood (10 mL) was collected from six healthy adults in heparin, and […] were isolated through the Ficol-Hypaque method (i.e., a customary method). The thus-isolated cells were diluted to 1×10^6/mL and then inoculated into a 24-well culture plate coated with CD3 and CD28 antibodies (Falcon), followed by culturing for four days in the presence of IL-12 (100 ng/mL), to thereby induce differentiation of T cells into Th1 cells. Atorvastatin or pitavastatin (0.01 to 10 μM) was added at the time of initiation of culturing, and the effect of each drug on differentiation of T cells into Th1 cells was examined. After completion of culturing, cells were washed thrice with PBS, and cytokines (IFN-γ and IL-4) in the cells and CD4 on the surfaces of the cells were stained in a conventional manner. The ratio of Th1 (CD4-positive, IFN-γ-positive cells) or Th2 (CD4-positive, IL-4-positive cells) to all the CD4-positive T cells was determined through flow cytometry.\nSpecifically, lymphocytes were stimulated with anti-CD3 antibody and anti-CD28 antibody, and the amounts of INF-γ (Th1 cytokine) and IL-4 (Th2 cytokine) in the cells were determined through flow cytometry, to thereby compare pitavastatin with atorvastatin in terms of the effect of inhibiting differentiation of peripheral blood T cells into Th1 cells, and the effect of promoting differentiation of peripheral blood T cells into Th2 cells."}}, "data": [{"smiles": "CC(C)c1c(C(=O)Nc2ccccc2)c(-c2ccccc2)c(-c2ccc(F)cc2)n1CC[C@@H](O)C[C@@H](O)CC(=O)O", "note": "[atorvastatin]", "values": [{"measurement": "concentration that significantly reduced the amount of IFN-γ produced by Th1 cells (inhibited activation of Th1 cells)", "setting": "[1]", "value": 25, "unit": "µM"}, {"measurement": "concentration exhibiting the effect of inhibiting differentiation of T cells into Th1 cells", "setting": "human T cells", "value": "at least 10 μM"}, {"measurement": "concentration exhibiting the effect of promoting differentiation of T cells into Th2 cells", "setting": "human T cells", "value": "at least 10 μM"}]}, {"smiles": "O=C(O)C[C@H](O)C[C@H](O)/C=C/c1c(C2CC2)nc2ccccc2c1-c1ccc(F)cc1", "note": "[pitavastatin, (3R,5S,6E)-7-[2-cyclopropyl-4-(4-fluorophenyl)-3-quinolyl]-3,5-dihydroxy-6-heptenoic acid]", "values": [{"measurement": "concentration that significantly reduced the amount of IFN-γ produced by Th1 cells (inhibited activation of Th1 cells)", "setting": "[1]", "value": "≥ 10", "unit": "µM"}, {"measurement": "effect of inhibiting activation of Th1 cells relative to atorvastatin", "setting": "[1]; versus atorvastatin, from amount of IFN-γ produced", "value": 2.5, "unit": "fold"}, {"measurement": "concentration exhibiting the effect of inhibiting differentiation of T cells into Th1 cells", "setting": "human T cells", "value": 1, "unit": "µM"}, {"measurement": "concentration exhibiting the effect of promoting differentiation of T cells into Th2 cells", "setting": "human T cells", "value": 1, "unit": "µM"}, {"measurement": "Th1/Th2 ratio improving effect relative to atorvastatin", "setting": "human T cells; versus atorvastatin", "value": 10, "unit": "fold"}, {"measurement": "effect of promoting differentiation of T cells into Th2 cells relative to atorvastatin", "setting": "human T cells; versus atorvastatin", "value": 10, "unit": "fold"}]}]}
